US20030229114A1, “Pyrroloquinoline quinone drugs as a neuroprotectant and methods of use thereof” (priority 2002, published 2003)
Values joined by “and” are separate entries in the source; they are usually repeats but may differ in a detail not shown here. Equal entries are not always repeated. “Also recorded” adds a separate entry of the source.

Legend:
[1] = tested on: cultured rat forebrain neurons; assay: Assay of intracellular ATP in neuronal cultures (firefly luciferase); assay type: cell-based
Procedure: (§1) Medium was not subsequently changed.
Experiments were carried out exclusively in EBSS. […] PQQ was directly dissolved in EBSS.
The Bioluminescent Somatic Cell Assay kit from Sigma (catalog No. FL-ASC) was used for assay of ATP as previously described (Rosenberg et al., 2000). At selected time points after addition of drug or vehicle, medium was removed, and then replaced with 200 μl of cell lysis agent. After brief agitation, the medium was transferred to microcentrifuge tubes that contained 200 μl of water. The tubes were placed on wet ice until assay. ATP assay mix was used at 25-fold dilution, and 100 μl of the extract was assayed.

[2] = tested on: BSA; assay: Western blot of BSA tyrosine nitration, cell-free (anti-nitrotyrosine antibody); assay type: biochemical, bovine; conditions: 1 hr
Procedure: BSA (0.5 mg/ml) in EBSS with or without PQQ was exposed to SIN-1 or peroxynitrite for 1 hr, and then 4× sample buffer (40% glycerol, 20% β-mercaptoethanol, 0.004% bromophenol blue, 6.4% SDS, 25% 1M Tris-HCl, pH 6.8) was added. After the samples were heated for 5 min, 2 μg protein per lane was subjected to SDS-PAGE analysis, followed by transfer to PVDF membrane (NEN Life Science, Boston, Mass.) and reacted with a mouse anti-nitrotyrosine monoclonal antibody (Upstate Biotechnology). Proteins were visualized with horseradish peroxidase-conjugated sheep anti-mouse immunoglobulin G (IgG) followed by detection with enhanced chemiluminescence.

[3] = tested on: cultured rat forebrain neurons; assay: Measurement of intracellular cGMP in neuronal cultures (enzyme-linked immunoassay); assay type: cell-based
Procedure: as §1
Intracellular cGMP was assayed by enzyme-linked immunoassay (Amersham). Cultures were washed three times, and then medium was replaced by EBSS with or without PQQ or SOD. The non-specific phosphodiesterase inhibitor, 3-isobutyl-1-methylxanthine (IBMX) at 100 μM was present in all conditions. DEA/NO, SIN-1 and peroxynitrite were added for 5 min, and then the medium was replaced with 200 μl of releasing reagent provided in the kit. The plates were agitated for 20 min at room temperature, and 20 μl of acetylation reagent was added. After 5 min, 50 μl samples were taken for assay.

[4] = Assay of H2O2 produced by the reaction of SIN-1 with SOD or PQQ; assay type: biochemical; conditions: data not shown
Procedure: The method described by Yakes and Van Houten (1997) was used, exploiting the oxidation of o-diansidine dihydrochloride (o-DD, Sigma D-3252) in the presence of horseradish peroxidase (Sigma P-8250). Briefly, SIN-1 (1 mM) was incubated with SOD (100 units/ml) or PQQ (100 μM) in the absence or presence of catalase (100 units/ml) in EBSS for various times. Then o-DD was added to a final concentration of 250 μM and 2.5 units/ml horseradish peroxidase were added. After 1 hr incubation at 37° C., the absorbance at 470 nm was measured. The concentration of H2O2 in samples was calculated based on a standard curve obtained by the reaction of various concentrations of H2O2 with o-DD and horseradish peroxidase.

[5] = tested on: Oligodendrocytes; assay: In vitro white matter injury assay: SIN-1 toxicity in oligodendrocytes; assay type: cell-based; conditions: PQQ 100 μM; SIN-1 0.25-2 mM, 2 hr; examined at 24 hr
Procedure: Oligodendrocytes were exposed to various concentrations of SIN-1 (0, 0.25, 0.5, 1 and 2 mM) in EBSS for 2 hr with or without PQQ (100 μM), then washed with HBSS containing 0.1% BSA for 2 times. Oligodendrocytes were then returned to the culture medium. The neurotoxicity was examined at 24 hr.
To illustrate the neuroprotective benefits of the invention, PQQ was used to show oligodendrocytes protection from cell toxicity in an in vitro white matter injury assay. Oligodendrocytes were exposed to various concentrations of SIN-1 (0, 0.25, 0.5, 1 and 2 mM) in EBSS for 2 hr with or without PQQ (100 μM), then washed with HBSS containing 0.1% BSA for 2 times. Oligodendrocytes were then returned to the culture medium. The neurotoxicity was examined at 24 hr.

[6] = ESR, in vitro; Urakami et al (1997); read-out: IC50 in scavenging superoxide; cited from earlier work

Question: For `O=C(O)c1cc(C(=O)O)c2c(n1)C(=O)C(=O)c1cc(C(=O)O)[nH]c1-2` [PQQ, Pyrroloquinoline quinone], which “Effect on ATP depletion caused by nitric oxide donors” value ([1]; PQQ 100 μM, DEA/NO, DPT/NO 1 mM) is on record?
Answer: The value was “did not block; also recorded: no effect”.

Question: What about the “Effect on ATP depletion caused by ONOO−” value ([1]; PQQ 100 μM, ONOO− 100 μM) of the same compound?
Answer: Its value is “no effect”.

Question: And the “Effect on ATP depletion induced by SIN-1” value ([1]; PQQ 100 μM, SIN-1 1 mM, 1 hr)?
Answer: Its value is “significantly blocked”.

Question: What about the “Intracellular ATP” value ([1]; of control values, 1 hr ONOO− 100 μM with PQQ 100 μM) of the same compound?
Answer: The value was 42±5.4% and 43.8±4.7%.

Question: What about the “Intracellular ATP” value ([1]; of control values, 1 hr SIN-1 1 mM with PQQ 100 μM) of the same compound?
Answer: The value was 84.4±13.9% and 93±12.6%.

Question: And the “Intracellular ATP” value ([1]; one hour, DEA/NO 1 mM in the presence of PQQ 100 μM)?
Answer: Its value is 42.9±19.6%.

Question: And the “Intracellular ATP” value ([1]; one hour, DPT/NO 1 mM in the presence of PQQ 100 μM)?
Answer: Its value is 72.7±7.9%.

Question: What about the “Effect on BSA nitration caused by ONOO−” value ([2]; ONOO− 100 μM, PQQ 100-500 μM) of the same compound?
Answer: The value was “potentiated; also recorded: increased”.

Question: And the “Effect on BSA nitration caused by SIN-1” value ([2]; SIN-1 1 mM, PQQ 100 μM, 300 μM or 500 μM)?
Answer: Its value is “completely blocked”.

Question: What about the “Intracellular cGMP content” value ([3]; DEA/NO 10 μM in the presence of PQQ 100 μM) of the same compound?
Answer: Its value is 255±38 % of control.

Question: What about the “Intracellular cGMP content” value ([3]; ONOO− 100 μM in the presence of PQQ 100 μM) of the same compound?
Answer: Its value is 142.5±16.2 % of control.

Question: What about the “Effect on cGMP levels in the presence of DEA/NO” value ([3]; PQQ 100 μM, DEA/NO 10 μM) of the same compound?
Answer: Its value is “did not significantly alter”.

Question: And the “Effect on cGMP accumulation induced by SIN-1” value ([3]; PQQ 100 μM, SIN-1 100 μM)?
Answer: The value was “potentiated; also recorded: enhanced”.

Question: And the “Intracellular cGMP content” value ([3]; SIN-1 100 μM in the presence of PQQ 100 μM)?
Answer: The value was 267±19.5 % of control and 313.5±45 % of control.

Question: What about the “Effect on oxidation of o-diansidine by H2O2” value [4] of the same compound?
Answer: The value was “did not reduce”.

Question: And the “Effect on oligodendrocyte death induced by SIN-1” value [5]?
Answer: Its value is “completely blocked”.

Question: And the IC50 [6]?
Answer: The IC50 was 38 nM.
